What all share (type): cell-based
The target in experiment [1] is T1, Protein transport protein Sec24C (SEC24C) (Homo sapiens, UniProt P53992).
T1 construct: endogenous in cells; host or cells: MCF7
Kind of experiment: In situ competitive profiling in live MCF7 cells (LFQ): SEC24C. As to conditions: 4 h, then 10 µM 24c, n=4. The text has this: (§1) In our efforts to determine the direct molecular targets of deoxyelephantopin we first performed a gel-based competitive in situ proteomic profiling assay[41] […] While the greater conformational flexibility of probe 24c could potentially lead to more promiscuous target engagement relatively to deoxyelephantopin, it was favoured based on the fact that an alkyne moiety appended to the rigid scaffold of deoxyelephantopin may hinder some of its interactions. MCF7 cells were pretreated with various concentrations of deoxyelephantopin for 4 h, harvested, lysed and the lysates were treated with the fluorogenic probe 24c-Cy3 (10 μM; Supplementary Fig. 10). […] Furthermore, cells were pretreated with 20 μM concentration of deoxyelephantopin or 24c and the proteomic profiles were compared (Fig. 6b, Supplementary Fig. 11). Multiple bands were detected that were equally competed by both DEP and 24c, thus again confirming that 24c can be used as an acceptable clickable analogue of deoxyelephantopin in pulldown assays. Having established the optimal labelling conditions by SDS–PAGE, we next carried out a mass spectrometry-based competitive profiling assay[42] coupled with the method of stable isotope labelling of amino acids in culture (SILAC)[43]. […]
(§2) Figure 6 Proteome-wide identification of deoxyelephantopin targets. […] Quantification was performed using label-free quantification (LFQ) method (n=4). […]

For experiment [2], the target named is T2, PPARγ (Homo sapiens, UniProt P37231).
T2 sequence (P37231 1-505): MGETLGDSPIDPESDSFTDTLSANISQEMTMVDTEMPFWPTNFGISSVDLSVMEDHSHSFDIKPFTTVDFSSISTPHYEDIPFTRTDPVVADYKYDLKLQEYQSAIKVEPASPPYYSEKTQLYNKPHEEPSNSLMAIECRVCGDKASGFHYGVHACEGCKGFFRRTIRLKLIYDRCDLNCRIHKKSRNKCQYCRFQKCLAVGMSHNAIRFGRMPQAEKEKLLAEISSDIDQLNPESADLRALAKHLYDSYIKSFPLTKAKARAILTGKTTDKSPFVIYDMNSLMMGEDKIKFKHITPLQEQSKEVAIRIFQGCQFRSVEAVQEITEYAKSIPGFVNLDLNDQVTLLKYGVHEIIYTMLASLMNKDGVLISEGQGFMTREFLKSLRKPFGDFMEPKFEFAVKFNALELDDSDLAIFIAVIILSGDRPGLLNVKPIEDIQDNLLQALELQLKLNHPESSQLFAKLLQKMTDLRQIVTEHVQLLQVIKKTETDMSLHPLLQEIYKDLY
Kind of experiment: Gel-based in situ competition of PPARγ overexpressed in HeLa cells. Also noted: host or cells: HeLa. The conditions noted are these: HeLa cells expressing PPARγ, 20 µM in situ 4 h, then 10 µM 24c-Cy3.

For experiment [3], the target named is T3, Zinc finger protein 346 (ZNF346) (Homo sapiens, UniProt Q9UL40).
T3 construct: 1,522 proteins were enriched from MCF7 cells by 10 μM probe 24c; endogenous in cells; host or cells: MCF7
T3 sequence (Q9UL40 whole entry): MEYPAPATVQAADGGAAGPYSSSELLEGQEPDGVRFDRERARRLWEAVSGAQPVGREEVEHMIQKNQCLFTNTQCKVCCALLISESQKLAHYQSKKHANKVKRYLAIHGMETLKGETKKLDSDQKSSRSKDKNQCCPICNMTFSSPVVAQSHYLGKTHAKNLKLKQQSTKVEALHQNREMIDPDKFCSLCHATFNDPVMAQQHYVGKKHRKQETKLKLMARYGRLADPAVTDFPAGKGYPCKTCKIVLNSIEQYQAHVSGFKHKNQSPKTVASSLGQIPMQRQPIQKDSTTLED
Kind of experiment: In situ competitive profiling in live MCF7 cells (LFQ): ZNF346. The conditions noted are these: 4 h, then 10 µM 24c, n=4.
Excerpt: as §1, §2

Experiment [4] addresses T4, Cystatin-B (CSTB) (Homo sapiens, UniProt P04080).
T4 construct: endogenous in cells; host or cells: MCF7
Kind of experiment: In situ competitive profiling in live MCF7 cells (LFQ): CSTB. The conditions noted are these: protein CSTB, 4 h, then 10 µM 24c, n=4.
Excerpt: as §1, §2

T4 sequence (P04080 whole entry): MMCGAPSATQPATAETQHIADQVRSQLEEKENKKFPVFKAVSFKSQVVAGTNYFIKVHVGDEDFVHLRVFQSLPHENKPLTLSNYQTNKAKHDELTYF
T1 sequence (P53992 whole entry): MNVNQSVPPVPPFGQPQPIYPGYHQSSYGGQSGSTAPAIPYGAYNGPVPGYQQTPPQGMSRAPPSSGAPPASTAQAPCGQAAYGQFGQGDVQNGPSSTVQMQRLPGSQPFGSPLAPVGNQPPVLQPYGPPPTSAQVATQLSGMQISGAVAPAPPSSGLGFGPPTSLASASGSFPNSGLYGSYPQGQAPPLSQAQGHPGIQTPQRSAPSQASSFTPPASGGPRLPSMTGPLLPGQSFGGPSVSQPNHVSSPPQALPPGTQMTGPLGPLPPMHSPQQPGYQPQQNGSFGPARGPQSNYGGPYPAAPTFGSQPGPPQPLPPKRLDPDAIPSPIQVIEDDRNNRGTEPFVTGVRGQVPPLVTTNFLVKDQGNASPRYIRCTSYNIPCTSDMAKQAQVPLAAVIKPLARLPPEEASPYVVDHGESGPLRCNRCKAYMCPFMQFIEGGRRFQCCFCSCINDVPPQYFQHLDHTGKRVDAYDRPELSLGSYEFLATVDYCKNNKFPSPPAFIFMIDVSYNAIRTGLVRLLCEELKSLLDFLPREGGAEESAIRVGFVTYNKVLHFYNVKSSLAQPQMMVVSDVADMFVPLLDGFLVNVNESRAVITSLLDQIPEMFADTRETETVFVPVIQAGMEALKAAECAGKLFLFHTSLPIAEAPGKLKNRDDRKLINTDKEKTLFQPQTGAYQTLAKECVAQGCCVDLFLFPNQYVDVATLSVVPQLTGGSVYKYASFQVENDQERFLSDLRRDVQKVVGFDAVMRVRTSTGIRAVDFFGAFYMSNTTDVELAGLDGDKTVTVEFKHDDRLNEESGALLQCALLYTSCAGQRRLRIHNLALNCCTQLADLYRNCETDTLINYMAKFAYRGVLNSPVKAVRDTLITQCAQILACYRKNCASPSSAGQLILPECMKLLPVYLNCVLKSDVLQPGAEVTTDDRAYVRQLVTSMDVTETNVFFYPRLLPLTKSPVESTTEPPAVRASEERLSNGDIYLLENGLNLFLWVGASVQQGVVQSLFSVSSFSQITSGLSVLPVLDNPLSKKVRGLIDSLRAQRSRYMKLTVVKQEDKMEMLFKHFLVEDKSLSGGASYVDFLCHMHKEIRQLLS

As to `C=C(C)C(=O)O[C@H]1CC2=C[C@@H](C/C(C)=C/[C@H]3OC(=O)C(=C)[C@H]13)OC2=O` [deoxyelephantopin], the “LFQ ratio 20 µM Deoxyelephantopin/DMSO with 24c” value was 0.18 in experiment [1], 0.00 in experiment [3] and 0.28 in experiment [4]. The “competition of PPARγ labelling by 24c-Cy3” value in experiment [2] is “efficient competition”.
